What follows are molecules tested against T1, Inhibitor of nuclear factor kappa-B kinase subunit beta (Homo sapiens, UniProt O14920) (assay: Inhibition of human recombinant C-terminal FLAG-epitope-tagged IKK2 expressed in baculovirus using biotinylated IkappaBalpha peptide as substrate assessed as decrease in [gamma-33P]-ATP incorporation in substrate after 30 mins by scintillation counting method).
T1 sequence (O14920 whole entry): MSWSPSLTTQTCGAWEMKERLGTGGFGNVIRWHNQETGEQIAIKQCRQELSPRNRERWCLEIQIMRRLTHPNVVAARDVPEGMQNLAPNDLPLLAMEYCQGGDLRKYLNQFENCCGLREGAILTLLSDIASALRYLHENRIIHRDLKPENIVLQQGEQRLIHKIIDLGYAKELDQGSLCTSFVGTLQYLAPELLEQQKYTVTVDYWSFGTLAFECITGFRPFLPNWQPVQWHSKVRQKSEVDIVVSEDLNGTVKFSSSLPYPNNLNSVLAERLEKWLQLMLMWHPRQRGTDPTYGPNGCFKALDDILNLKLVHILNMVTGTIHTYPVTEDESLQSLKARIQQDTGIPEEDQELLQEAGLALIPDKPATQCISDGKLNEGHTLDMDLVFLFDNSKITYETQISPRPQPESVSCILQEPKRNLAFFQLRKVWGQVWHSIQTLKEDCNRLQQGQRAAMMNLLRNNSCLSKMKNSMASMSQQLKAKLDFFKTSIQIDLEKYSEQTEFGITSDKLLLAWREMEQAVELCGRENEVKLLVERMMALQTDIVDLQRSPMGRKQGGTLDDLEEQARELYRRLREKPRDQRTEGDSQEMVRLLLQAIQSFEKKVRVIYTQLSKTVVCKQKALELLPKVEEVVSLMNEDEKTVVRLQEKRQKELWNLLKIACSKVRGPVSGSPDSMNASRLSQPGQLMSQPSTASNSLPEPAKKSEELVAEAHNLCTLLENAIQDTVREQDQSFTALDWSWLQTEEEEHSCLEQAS

Row | SMILES | IC50 [µM]
1 | CCC(=O)Nc1ccc2c(c1)-c1c(c(C(N)=O)nn1-c1ccc(S(N)(=O)=O)cc1)CC2 | 1 to 10
2 | CC(C)CNc1ccc2c(c1)-c1c(c(C(N)=O)nn1-c1ccc(S(N)(=O)=O)cc1)CC2 | 10 to 100
3 | NC(=O)c1nn(-c2ccc(S(N)(=O)=O)cc2)c2c1CCc1ccc(NC(=O)C3CC3)cc1-2 | 1 to 10
4 | NC(=O)c1nn(-c2ccc(S(N)(=O)=O)cc2)c2c1CCc1ccc(NS(=O)(=O)c3ccc(F)cc3F)cc1-2 | 10 to 100
5 | CS(=O)(=O)Nc1ccc2c(c1)-c1c(c(C(N)=O)nn1-c1ccc(S(N)(=O)=O)cc1)CC2 | ≤ 1
6 | NC(=O)c1nn(-c2ccc(S(N)(=O)=O)cc2)c2c1CCc1ccc(NC(=O)C3CCC3)cc1-2 | 1 to 10
7 | NC(=O)c1nn(-c2ccc(S(N)(=O)=O)cc2)c2c1CCc1ccc(NS(=O)(=O)c3ccc(F)cc3)cc1-2 | 1 to 10
8 | NC(=O)c1nn(-c2ccc(S(N)(=O)=O)cc2)c2c1CCc1ccc(NC(=O)Cc3ccccc3)cc1-2 | 1 to 10
9 | Cc1ccc(CNc2ccc3c(c2)-c2c(c(C(N)=O)nn2-c2ccc(S(N)(=O)=O)cc2)CC3)cc1 | 10 to 100
10 | NC(=O)c1nn(-c2ccc(S(N)(=O)=O)cc2)c2c1CCc1ccc(NS(=O)(=O)c3cc(C(F)(F)F)cc(C(F)(F)F)c3)cc1-2 | 1 to 10
11 | NC(=O)c1nn(-c2ccc(S(N)(=O)=O)cc2)c2c1CCc1ccc(NS(=O)(=O)c3ccc(-c4ccccn4)s3)cc1-2 | 10 to 100
12 | COc1ccc(CNc2ccc3c(c2)-c2c(c(C(N)=O)nn2-c2ccc(S(N)(=O)=O)cc2)CC3)cc1 | 1 to 10
13 | CC(=O)Nc1ccc2c(c1)-c1c(c(C(N)=O)nn1-c1ccc(S(N)(=O)=O)cc1)CC2 | 10 to 100
14 | Cn1cnc(S(=O)(=O)Nc2ccc3c(c2)-c2c(c(C(N)=O)nn2-c2ccc(S(N)(=O)=O)cc2)CC3)c1 | 10 to 100
15 | NC(=O)c1nn(-c2ccc(S(N)(=O)=O)cc2)c2c1CCc1ccc(N)cc1-2 | ≤ 1
16 | COc1ccc(S(=O)(=O)Nc2ccc3c(c2)-c2c(c(C(N)=O)nn2-c2ccc(S(N)(=O)=O)cc2)CC3)cc1OC | 10 to 100
17 | NC(=O)c1nn(-c2ccc(S(N)(=O)=O)cc2)c2c1CCc1ccc(NS(=O)(=O)c3ccccc3)cc1-2 | 1 to 10
18 | CC(C)S(=O)(=O)Nc1ccc2c(c1)-c1c(c(C(N)=O)nn1-c1ccc(S(N)(=O)=O)cc1)CC2 | 1 to 10
19 | CC(C)C(=O)Nc1ccc2c(c1)-c1c(c(C(N)=O)nn1-c1ccc(S(N)(=O)=O)cc1)CC2 | 1 to 10
20 | CCCS(=O)(=O)Nc1ccc2c(c1)-c1c(c(C(N)=O)nn1-c1ccc(S(N)(=O)=O)cc1)CC2 | 1 to 10
21 | NC(=O)c1nn(-c2ccc(S(N)(=O)=O)cc2)c2c1CCc1ccc(NS(=O)(=O)c3cccc4ccccc34)cc1-2 | 10 to 100
22 | COCC(=O)Nc1ccc2c(c1)-c1c(c(C(N)=O)nn1-c1ccc(S(N)(=O)=O)cc1)CC2 | 1 to 10
23 | NC(=O)c1nn(-c2ccc(S(N)(=O)=O)cc2)c2c1CCc1ccc(NS(=O)(=O)c3ccc(Cl)c(Cl)c3)cc1-2 | 1 to 10
24 | COc1ccc(C(=O)Nc2ccc3c(c2)-c2c(c(C(N)=O)nn2-c2ccc(S(N)(=O)=O)cc2)CC3)cc1 | ≤ 1

Row | SMILES | IC50 [µM]
25 | NC(=O)c1nn(-c2ccc(S(N)(=O)=O)cc2)c2c1CCc1ccc(NS(=O)(=O)c3cc(Cl)ccc3Cl)cc1-2 | 1 to 10
26 | NC(=O)c1nn(-c2ccc(S(N)(=O)=O)cc2)c2c1CCc1ccc(NC(=O)c3ccco3)cc1-2 | 10 to 100
27 | NC(=O)c1nn(-c2ccc(S(N)(=O)=O)cc2)c2c1CCc1ccc(NC(=O)c3ccccc3)cc1-2 | 1 to 10
28 | NC(=O)c1nn(-c2ccc(S(N)(=O)=O)cc2)c2c1CCc1ccc(NC(=O)c3ccc(C(F)(F)F)cc3)cc1-2 | 1 to 10
29 | CCNC(=O)Nc1ccc2c(c1)-c1c(c(C(N)=O)nn1-c1ccc(S(N)(=O)=O)cc1)CC2 | 1 to 10
30 | C[C@H](N)C(=O)Nc1ccc2c(c1)-c1c(c(C(N)=O)nn1-c1ccc(S(N)(=O)=O)cc1)CC2 | 1 to 10
31 | NC(=O)c1nn(-c2ccc(S(N)(=O)=O)cc2)c2c1CCc1ccc(NC(=O)C34CC5CC(CC(C5)C3)C4)cc1-2 | 1 to 10
32 | NC(=O)c1nn(-c2ccc(S(N)(=O)=O)cc2)c2c1CCc1ccc(NS(=O)(=O)c3ccc(Br)cc3F)cc1-2 | 1 to 10
33 | NC(=O)c1nn(-c2ccc(S(N)(=O)=O)cc2)c2c1CCc1ccc(NS(=O)(=O)c3ccc(F)c(F)c3)cc1-2 | 10 to 100
34 | NC(=O)c1nn(-c2ccc(S(N)(=O)=O)cc2)c2c1CCc1ccc(NS(=O)(=O)CC(F)(F)F)cc1-2 | 1 to 10
35 | CN(C)c1cccc2c(S(=O)(=O)Nc3ccc4c(c3)-c3c(c(C(N)=O)nn3-c3ccc(S(N)(=O)=O)cc3)CC4)cccc12 | 1 to 10
36 | NC(=O)c1nn(-c2ccc(S(N)(=O)=O)cc2)c2c1CCc1ccc(NC(=O)C3CCCC3)cc1-2 | 1 to 10
37 | C[C@@H](N)C(=O)Nc1ccc2c(c1)-c1c(c(C(N)=O)nn1-c1ccc(S(N)(=O)=O)cc1)CC2 | 1 to 10
38 | CCS(=O)(=O)Nc1ccc2c(c1)-c1c(c(C(N)=O)nn1-c1ccc(S(N)(=O)=O)cc1)CC2 | ≤ 1
39 | Cc1ccc(S(=O)(=O)Nc2ccc3c(c2)-c2c(c(C(N)=O)nn2-c2ccc(S(N)(=O)=O)cc2)CC3)cc1 | 10 to 100
40 | NC(=O)c1nn(-c2ccc(S(N)(=O)=O)cc2)c2c1CCc1ccc(NC(=O)c3cccs3)cc1-2 | 10 to 100
41 | CCCC(=O)Nc1ccc2c(c1)-c1c(c(C(N)=O)nn1-c1ccc(S(N)(=O)=O)cc1)CC2 | 1 to 10
42 | NC(=O)c1nn(-c2ccc(S(N)(=O)=O)cc2)c2c1CCc1ccc(NS(=O)(=O)C(F)(F)F)cc1-2 | 10 to 100
43 | NC(=O)c1nn(-c2ccc(S(N)(=O)=O)cc2)c2c1CCc1ccc(NS(=O)(=O)c3cccc4cnccc34)cc1-2 | 1 to 10
44 | NC(=O)c1nn(-c2ccc(S(N)(=O)=O)cc2)c2c1CCc1ccc(NC(=O)C3CCCCC3)cc1-2 | 1 to 10
45 | NC(=O)c1nn(-c2ccc(S(N)(=O)=O)cc2)c2c1CCc1ccc(NS(=O)(=O)c3ccc4cccnc4c3)cc1-2 | > 100
46 | NC(=O)c1nn(-c2ccc(S(N)(=O)=O)cc2)c2c1CCc1ccc(NS(=O)(=O)c3cc(Cl)c(Cl)cc3Cl)cc1-2 | 1 to 10
47 | COc1ccc(S(=O)(=O)Nc2ccc3c(c2)-c2c(c(C(N)=O)nn2-c2ccc(S(N)(=O)=O)cc2)CC3)cc1 | 10 to 100
48 | NC(=O)c1nn(-c2ccc(S(N)(=O)=O)cc2)c2c1CCc1ccc(NC(=O)c3ccncc3)cc1-2 | ≤ 1

Row | SMILES | IC50 [µM]
49 | NC(=O)c1nn(-c2ccc(S(N)(=O)=O)cc2)c2c1CCc1ccc(NS(=O)(=O)c3cccc4nonc34)cc1-2 | 1 to 10
50 | NC(=O)c1nn(-c2ccc(S(N)(=O)=O)cc2)c2c1CCc1ccc([N+](=O)[O-])cc1-2 | > 100
51 | NC(=O)c1nn(-c2ccc(S(N)(=O)=O)cc2)c2c1CCc1ccc(NS(=O)(=O)c3ccc(-c4ccccc4)cc3)cc1-2 | 1 to 10
52 | NC(=O)c1nn(-c2ccc(S(N)(=O)=O)cc2)c2c1CCc1ccc(NS(=O)(=O)Cc3ccccc3)cc1-2 | 1 to 10
53 | NC(=O)c1nn(-c2ccc(S(N)(=O)=O)cc2)c2c1CCc1ccc(NS(=O)(=O)c3ccc(Cl)cc3)cc1-2 | 1 to 10
54 | COc1ccc(C(=O)Nc2ccc3c(c2)-c2c(c(C(N)=O)nn2-c2ccc(S(N)(=O)=O)cc2)CC3)cc1OC | 1 to 10
55 | CCCCC(=O)Nc1ccc2c(c1)-c1c(c(C(N)=O)nn1-c1ccc(S(N)(=O)=O)cc1)CC2 | 1 to 10
56 | CCCCS(=O)(=O)Nc1ccc2c(c1)-c1c(c(C(N)=O)nn1-c1ccc(S(N)(=O)=O)cc1)CC2 | 1 to 10
57 | NC(=O)c1nn(-c2ccc(S(N)(=O)=O)cc2)c2c1CCc1ccc(NS(=O)(=O)c3ccc(Br)cc3)cc1-2 | 1 to 10
58 | NC(=O)c1nn(-c2ccc(S(N)(=O)=O)cc2)c2c1CCc1ccc(NC(=O)c3ccc(Cl)cc3)cc1-2 | ≤ 1
59 | Cc1nc(S(=O)(=O)Nc2ccc3c(c2)-c2c(c(C(N)=O)nn2-c2ccc(S(N)(=O)=O)cc2)CC3)cn1C | 10 to 100
60 | NC(=O)c1nn(-c2ccc(S(N)(=O)=O)cc2)c2c1CCc1ccc(NS(=O)(=O)c3cccc(C(F)(F)F)c3)cc1-2 | 10 to 100
61 | NC(=O)c1nn(-c2ccc(S(N)(=O)=O)cc2)c2c1CCc1ccc(NC(=O)c3ccc(F)cc3)cc1-2 | ≤ 1
62 | NC(=O)c1nn(-c2ccc(S(N)(=O)=O)cc2)c2c1CCc1ccc(NCc3ccccc3)cc1-2 | 1 to 10
63 | NC(=O)c1nn(-c2ccc(S(N)(=O)=O)cc2)c2c1CCc1ccc(NC(=O)Nc3ccccc3)cc1-2 | 1 to 10
64 | NC(=O)c1nn(-c2ccc(S(N)(=O)=O)cc2)c2c1CCc1ccc(NC(=O)c3cccc(C(F)(F)F)c3)cc1-2 | 1 to 10
65 | Cc1cccc(C(=O)Nc2ccc3c(c2)-c2c(c(C(N)=O)nn2-c2ccc(S(N)(=O)=O)cc2)CC3)c1 | ≤ 1
66 | CC(=O)Nc1nc(C)c(S(=O)(=O)Nc2ccc3c(c2)-c2c(c(C(N)=O)nn2-c2ccc(S(N)(=O)=O)cc2)CC3)s1 | 1 to 10
67 | CN(C)S(=O)(=O)c1ccc(-n2nc(C(N)=O)c3c2-c2cc(N)ccc2CC3)cc1 | 1 to 10
68 | NC(=O)c1nn(-c2ccc(S(N)(=O)=O)cc2)c2c1CCc1ccc(NS(=O)(=O)c3ccc(Cl)cc3Cl)cc1-2 | 1 to 10
69 | C=CCN(CC=C)S(=O)(=O)c1ccc(-n2nc(C(N)=O)c3c2-c2cc(N)ccc2CC3)cc1 | 1 to 10
70 | NC(=O)c1nn(-c2ccc(S(N)(=O)=O)cc2)c2c1CCc1ccc(NCc3ccc(Cl)cc3)cc1-2 | 10 to 100

— ChEMBL document CHEMBL3879881, “Substituted pyrazolyl compounds for the treatment of inflammation” (2005)
